Patent US5077035A, “Radioiodinated benzovesamicol analogs for cholinergic nerve mapping” (priority 1990, dated 1991)
Values belong to the compound of their own block, whether it stands above or below them.

Experiments:
[1] = tested on: vesicular sequestration of acetylcholine; details: cited from earlier work
cholinergic neurons [2] = test: Tissue distribution of radiotracer in mouse brain and tissues 4 h after intravenous injection (Example 9, Table II); details: 4 h after i.v. injection
cholinergic neurons [3] = test: Blocking of tracer accumulation by pretreatment with unlabeled (-)-vesamicol; details: i.p.
in vivo = details: mouse, iv
cholinergic neurons [4] = test: Temporal pattern of distribution in mouse brain, 4 to 24 h (FIGS. 3 and 4); format: in vivo, female CD-1 mice
[5] = tested on: central cholinergic neurons; test: Brain distribution of 5-[125I]iodobenzovesamicol in mice, control and blocked (Example 10, Table III); format: in vivo, CD-1 mice
Description: (§1) Radioactive compound 13 as prepared above in Example 1 was dissolved in ethanol/0.005M sodium acetate (1/9) buffer (pH 4.5) at 1 mCi/ml and 10 μCi of the solution was administered intravenously to lightly etherized CD-1 mice. Animals were sacrificed at various time points after injection. Samples of the brain and other tissues were excised, weighed, and counted. As shown below in Table III, the ratios at 4 hours are consistent with the regional distribution pattern of central cholinergic neurons. […] | ^a N = 5 per group. Mice (CD1) weighed 19-21 g. Concentrations are | normalized to a 20 g mouse. […] | prior to i.v. tracer injection; all amimals were killed 4 h after tracer | injection. Controls received an equal volume of vehicle. In vivo

[6] = as above; format: in vivo, CD-1 mice; details: mouse, iv, 10 uCi, normalized to a 20 g mouse
Description: as §1

[7] = Physiological activity of the enantiomers
striatum = test: In vivo autoradiography in rat; details: 90 min after i.v. injection
Description: injection. Controls received an equal volume of vehicle. In vivo
autoradiography in rat 90 min after i.v. injection of 5[^125 I]IBVM

[8] = ± S.D., normalized to a 25 g mouse
[9] = Blocked: (±)-vesamicol 0.53 mg/kg, ip, 10 min prior, 4 h after i.v. tracer
[10] = Control, 4 h after i.v. injection
[11] = pretreatment with cold (±)-vesamicol 0.53 mg/kg, ip

Compound: O[C@@H]1CCCC[C@H]1N1CCC(c2ccccc2)CC1 (relative stereo) [Vesamicol, trans-2-(4-phenylpiperidino)-cyclohexanol]
Inhibition of vesicular sequestration of acetylcholine (in words) [1]: potent inhibitor of the vesicular sequestration of acetylcholine

Compound: O[C@@H]1Cc2cccc([125I])c2C[C@H]1N1CCC(c2ccccc2)CC1 (relative stereo) [[^125 I]-(±)-IBVM, (±)-trans-2-hydroxy-5-iodo-3-(4-phenylpiperidino)tetralin]
Concentration ratio [L. atrium]/[L. ventricle] (cholinergic neurons [2]): 4.7 | Concentration ratio [cortex]/[blood] (cholinergic neurons [2]): 2.3 | Concentration ratio [cortex]/[cerebellum] (cholinergic neurons [2]): 5.9 | Concentration ratio [striatum]/[cerebellum] (cholinergic neurons [2]): 16.5 | % of dose injected, whole brain (cholinergic neurons [2]; normalized to a 25 g mouse): 0.56 ± .07 % OF DOSE INJECTED | Concentration, cerebellum (cholinergic neurons [2]; [8]): 0.20 ± .04 % DOSE/G | Concentration, cerebral cortex (cholinergic neurons [2]; [8]): 1.17 ± .20 % DOSE/G | Concentration, striatum (cholinergic neurons [2]; [8]): 3.29 ± .52 % DOSE/G

Compound: (-)-vesamicol [reference compound]
Potency relative to (+)-vesamicol ([1]; enantioselectivity versus (+)-vesamicol): 25 times more potent | Toxicity limitation of dose (in words) (cholinergic neurons [3]; doses larger than 605 μg/kg): larger doses of (-)-vesamicol could not be injected due to toxicity limitations

Second part, led by results:

Concentration ratio [L. atrium]/[L. ventricle] (cholinergic neurons [2]): 0.9 | Concentration ratio [cortex]/[blood] (cholinergic neurons [2]): 0.3 | Concentration ratio [cortex]/[cerebellum] (cholinergic neurons [2]): 2.0 | Concentration ratio [striatum]/[cerebellum] (cholinergic neurons [2]): 4.3 | % of dose injected, whole brain (cholinergic neurons [2]; normalized to a 25 g mouse): 0.06 ± .01 % OF DOSE INJECTED | tissue uptake at 4 h (in vivo; cerebellum): 0.06 ± 0.01 %ID/g | tissue uptake at 4 h (in vivo; cerebral cortex): 0.12 ± 0.01 %ID/g | tissue uptake at 4 h (in vivo; striatum): 0.26 ± 0.04 %ID/g | Initial striatal uptake of the two enantiomers (in words) (cholinergic neurons [4]; mouse striatum): nearly identical initial striatal uptake | Striatal washout (in words) (cholinergic neurons [4]; mouse striatum): rapidly washes out of the striatum | Striatal level within 4 hours (in words) (cholinergic neurons [4]; mouse striatum, within 4 hours): nearly absent from this tissue
Compound: O[C@H]1Cc2cccc([125I])c2C[C@@H]1N1CCC(c2ccccc2)CC1 [[^125 I]-(+)-IBVM]

Concentration ratio [L. atrium]/[L. ventricle] (cholinergic neurons [2]): 5.5 | Concentration ratio [cortex]/[blood] (cholinergic neurons [2]): 6.2 | Concentration ratio [cortex]/[cerebellum] (cholinergic neurons [2]): 11.1 | Concentration ratio [striatum]/[cerebellum] (cholinergic neurons [2]): 27.2 | % of dose injected, whole brain (cholinergic neurons [2]; normalized to a 25 g mouse): 1.03 ± .07 % OF DOSE INJECTED | Concentration, cerebral cortex (cholinergic neurons [2]; [8]): 2.56 ± .21 % DOSE/G | Tissue ratio cortex/cerebellum [5, 9]: 2.9 | Tissue ratio striatum/cerebellum [5, 9]: 8.2 | Tissue ratio cortex/cerebellum [5, 10]: 5.6 | Tissue ratio striatum/cerebellum [5, 10]: 15.8 | tissue uptake at 4 h ([6]; blood, Blocked: (±)-vesamicol 0.53 mg/kg, ip, 10 min prior, 4 h after i.v. tracer, read-out: Concentration, blood): 0.45 ± 0.1 %ID/g | tissue uptake at 4 h ([6]; blood, Control, 4 h after i.v. injection, read-out: Concentration, blood): 1.01 ± 0.7 %ID/g | tissue uptake at 4 h ([6]; cerebellum, Blocked: (±)-vesamicol 0.53 mg/kg, ip, 10 min prior, 4 h after i.v. tracer, read-out: Concentration, cerebellum): 0.24 ± 0.1 %ID/g | tissue uptake at 4 h ([6]; cerebellum, Control, 4 h after i.v. injection, read-out: Concentration, cerebellum): 0.26 ± 0.06 %ID/g | tissue uptake at 4 h ([6]; cortex, Blocked: (±)-vesamicol 0.53 mg/kg, ip, 10 min prior, 4 h after i.v. tracer, read-out: Concentration, cortex): 0.69 ± 0.13 %ID/g | tissue uptake at 4 h ([6]; cortex, Control, 4 h after i.v. injection, read-out: Concentration, cortex): 1.46 ± 0.25 %ID/g | tissue uptake at 4 h ([6]; striatum, Blocked: (±)-vesamicol 0.53 mg/kg, ip, 10 min prior, 4 h after i.v. tracer, read-out: Concentration, striatum): 1.97 ± 0.35 %ID/g | tissue uptake at 4 h ([6]; striatum, Control, 4 h after i.v. injection, read-out: Concentration, striatum): 4.12 ± 0.65 %ID/g | tissue uptake at 4 h (in vivo; cerebellum): 0.23 ± 0.04 %ID/g | tissue uptake at 4 h (in vivo; striatum): 6.26 ± 0.46 %ID/g | Initial striatal uptake of the two enantiomers (in words) (cholinergic neurons [4]; mouse striatum): nearly identical initial striatal uptake
Compound: O[C@@H]1Cc2cccc([125I])c2C[C@H]1N1CCC(c2ccccc2)CC1 [[^125 I]-(-)-IBVM]
Change of cerebellum accumulation of radioactivity [5, 11]: -8% | Change of striatal and cortical accumulation of radioactivity [5, 11]: -53% | Physiological activity versus the other enantiomer (in words) [7]: more physiologically active than the positive | Accumulation in striatum by autoradiography (in words) (striatum): selective accumulation of tracer in the striatum | Lowering of 4 hour striatal and cortical accumulation (cholinergic neurons [3]; pretreatment with unlabeled (-)-vesamicol hydrochloride 605 μg/kg, 10 min prior to tracer): 65% | Neuronal specificity in cortex and striatum (cholinergic neurons [4]; 4-24 h, 4 h activity of (+)-enantiomer as estimate of non-neuronal binding): > 95% | Specific neuronal binding in cortex and striatum (cholinergic neurons [4]; 4 to 24 h, cerebellar concentration as approximation of non-neuronal binding): > 95% | Radioactivity in cerebral cortex and striatum over time (in words) (cholinergic neurons [4]; 4 to 24 hours following injection): remains at a high and fairly constant level
